Laboratory results taken from patent publication US9724351B2, “Compounds for the treatment of paramoxyvirus viral infections” (priority 2012, dated 2017).

How the values were obtained:
[1] = Cytotoxicity Determination; type: cell-based; settings: human, HEp-2 cells, without addition of virus, CCK-8 readout, bins (Table 4: greater than 100 μM; Table 5: equal to or less than 100 μM and greater than 10 μM), read-out: 50% cytotoxicity concentration (CC50)
In short: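 Uninfected cells were exposed to compounds in duplicate over a 7-point ½ dilution series starting at 100 μM final, for 5 days at 37 °C, 5% CO2. CCK-8 was then added for 3-4 h, and CC50 was calculated from optical density.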

[2] = test system: Respiratory Syncytial Virus (RSV) long strain (ATCC#VR-26); experiment: RSV Antiviral Assay (CPE reduction assay); type: cell-based; settings: human respiratory syncytial virus, 120 h; HEp-2 cells infected with RSV long strain, 5 days, CCK-8 readout; bins (Table 2: less than 1 μM; Table 3: equal to or higher than 1 μM and less than 50 μM); read-out: 50% effective concentration (EC50)
In short: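 HEp-2 cells infected with 100 TCID50 RSV long strain per well, compounds from 100 μM or 1 μM in 9-point ⅓ dilutions, duplicates, 1% DMSO. After 5 days at 37 °C, viable cells measured by CCK-8 (A450, 630 nm background); EC50 by regression on mean O.D.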

| Compound | CC50 at 5 days [1] | EC50 [2] |
| --- | --- | --- |
| COc1ccc(C(=O)NCC(=O)c2cccc(-n3cnc4c(F)cccc43)n2)cc1OC [Compound 2600] | 10 to 100 µM | 1 to 50 µM |
| COc1cc(C(=O)NCC(=O)c2ccc(OC)c(-c3ccc(C)cc3)n2)ccc1OCCO [Compound 1606] | > 100 µM | < 1 µM |
| CCOc1ccc(C(=O)NCC(=O)N/N=C(\C)c2csc3ccccc23)cc1OC [Compound 502] | > 100 µM | < 1 µM |
| C/C(=N\NC(=O)CNC(=O)c1ccc2c(c1)OCCN2C)c1csc2ccccc12 [Compound 470] | > 100 µM | 1 to 50 µM |
| COc1cc(-c2nc(C(=O)CNC(=O)c3ccc(OCCO)c(OC)c3)ccc2OC)ccc1F [Compound 1329] | > 100 µM | < 1 µM |
| COc1cc(C(=O)NCC(=O)N(C)/N=C(\C)c2csc3c(F)cccc23)ccc1OCCO [Compound 651] | > 100 µM | < 1 µM |
| COc1cc(C(=O)NCC(=O)c2ccc(OCC3CC3)c(-c3csc4c(F)cccc34)n2)ccc1OCCO [Compound 2617] | > 100 µM | < 1 µM |
| COc1cc(OCCC(=O)N(C)/N=C/c2csc3c(F)cccc23)ccc1OCCO [Compound 2306] | > 100 µM | 1 to 50 µM |
| COc1ccc(C(=O)NC(C)(C)C(=O)c2cccc(-c3csc4c(F)cccc34)n2)cc1OC [Compound 1340] | > 100 µM | 1 to 50 µM |
| COc1cc(C(=O)NCC(=O)c2ccc(OC)c(-c3c(C)[nH]c4c(F)cccc34)n2)ccc1OCCO [Compound 4002] | 10 to 100 µM | < 1 µM |
| COc1cc(C(=O)NCC(=O)c2ccc(OC)c(-c3ccc(F)c(Br)c3)n2)ccc1OCc1cnc[nH]1 [Compound 1333] | 10 to 100 µM | < 1 µM |
| COc1ccc(C(=O)NCC(=O)N/N=C(\C)c2csc3c(Cl)cccc23)cc1OC [Compound 400-11] | 10 to 100 µM | 1 to 50 µM |
| COc1cc(C(=O)NCC(=O)c2ccc(OC)c(-c3ccc(F)c(CF)c3)n2)ccc1OCCO [Compound 1326] | > 100 µM | < 1 µM |
| COc1cc(C(=O)NCC(=O)N(C)C(=O)N(C)c2csc3c(F)cccc23)ccc1OCCO [Compound 2803] | > 100 µM | 1 to 50 µM |
| C=C(C)c1cc(C(=O)CNC(=O)c2ccc(OC)c(OC)c2)nc(-c2csc3c(F)cccc23)c1 [Compound 1237] | 10 to 100 µM | < 1 µM |
| COc1cc(C(=O)NCC(=O)N/N=C(\C)c2csc3ccccc23)ccc1OC(C)C [Compound 475] | > 100 µM | < 1 µM |
| COc1ccc(C(=O)NCC(=O)c2ccc(OC)c(-c3ccnc(Cl)c3)n2)cc1OC [Compound 1536] | > 100 µM | 1 to 50 µM |
| COc1cc(C(=O)NCC(=O)c2ccc(OC)c(-c3ccnc(F)c3)n2)ccc1OCCO [Compound 1610] | > 100 µM | 1 to 50 µM |
| COc1cc(C(=O)NCC(=O)c2ccc(OC)c(-c3c[nH]c4c(F)cccc34)n2)ccc1OCCO [Compound 1342] | > 100 µM | < 1 µM |
| COc1ccc(C(=O)NCC(=O)c2ccc(OC)c(-c3ccc(N4CCCCC4)cc3)n2)cc1OC [Compound 1524] | > 100 µM | 1 to 50 µM |
| COc1cc(C(=O)CNC(=O)c2ccc(OC)c(OC)c2)nc(-c2ccc3c(c2)OCCO3)c1 [Compound 1402] | > 100 µM | 1 to 50 µM |
| COc1ccc(C(=O)NCC(=O)N/N=C2\CCCc3sccc32)cc1OC [Compound 436] | > 100 µM | 1 to 50 µM |
| COc1ccc(C(=O)NCC(=O)c2ccc(OC)c(-c3ccc(C#N)cc3)n2)cc1OC [Compound 1505] | > 100 µM | < 1 µM |
| CCCC/C(=N\NC(=O)CNC(=O)c1ccc(OC)c(OC)c1)c1csc2ccccc12 [Compound 423] | > 100 µM | < 1 µM |
| COc1cc(C(=O)NCC(=O)c2cc(N(C)C)cc(-c3csc4c(F)cccc34)n2)ccc1OCCO [Compound 1245] | > 100 µM | < 1 µM |
